One data set deals with S. aureus ATCC 11632. Nature of the data set: Broth microdilution susceptibility testing. Format: cell-based. The conditions noted are these: Staphylococcus aureus, ATCC11632, read-out: Minimum Inhibitory Concentration (MIC90) S. aureus ATCC 11632 − Thy. (In general: Broth dilution looks for growth in wells or tubes with falling amounts of substance.)
The test system of the next data set is M. tuberculosis H37Rv. Nature of the data set: Microplate alamar blue assay. Format: cell-based. The conditions noted are these: Mycobacterium tuberculosis. (In general: Alamar Blue is a resazurin reagent that responds to reducing activity.)
In data set [1] the test system is E. coli ATCC 25922. Nature of the data set: SYTOX Green uptake assay. Format: cell-based. The conditions noted are these: any of the concentrations tested; melittin as positive control.
In another data set the target is SaDHFR (Staphylococcus aureus, UniProt P0A017). Format: biochemical. The settings on record: apparent IC50; purified S. aureus DHFR.
SaDHFR, sequence (P0A017 whole entry, the tested form may be a part): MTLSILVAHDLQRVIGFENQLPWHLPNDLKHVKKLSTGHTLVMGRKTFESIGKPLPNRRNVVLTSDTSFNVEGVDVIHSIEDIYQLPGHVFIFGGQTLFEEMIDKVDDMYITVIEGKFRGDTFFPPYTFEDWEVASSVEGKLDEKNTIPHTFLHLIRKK
The test system of the next data set is Micrococcus luteus. Nature of the data set: Kirby-Bauer agar diffusion assay. Format: cell-based.
A further data set concerns Bacillus subtilis. Nature of the data set: Kirby-Bauer agar diffusion assay. Format: cell-based.
Another data set deals with M. abscessus L948. In words: MABA assay in M. abscessus. Format: cell-based. The conditions noted are these: for IC50: Mycobacteroides abscessus, L948, read-out: Half-Maximal Inhibitory Concentration (IC50, μM) M. abscessus L948 MABA.
Another data set has as its system S. aureus. In words: Kirby-Bauer agar diffusion assay. The settings on record: both tested strains of S. aureus. Format: cell-based. (In general: A growth-free zone around the sample is the usual read-out of agar diffusion tests.)
Data set [2] relates to E. coli ATCC 25922. Nature of the data set: Broth microdilution susceptibility testing. Format: cell-based. The conditions noted are these: Escherichia coli, ATCC25922, read-out: Minimum Inhibitory Concentration (MIC90) E. coli ATCC 25922 − Thy.
In data set [3] the test system is E. coli W3310ΔmscL::Kan, E. coli K12 W3310ΔmscS, E. coli W3310. Format: cell-based. The settings on record: comparison between knock-out and WT strains.
The next data set concerns P. aeruginosa PAO1. Nature of the data set: Broth microdilution susceptibility testing. Format: cell-based. The conditions noted are these: Pseudomonas aeruginosa, PAO1, read-out: Minimum Inhibitory Concentration (MIC90) P. aeruginosa PAO1 − Thy.
Where [4] appears, read: read-out: Minimum Inhibitory Concentration (MIC90, μM) M. tuberculosis H37Rv MABA: 7H12 Media.
[5] abbreviates: read-out: Minimum Inhibitory Concentration (MIC90, μM) M. tuberculosis H37Rv MABA: GAST Media.

Consider 8 compounds from article PMC11908892 (ACS infectious diseases, 2025).

In brackets after ≈: the same amount, converted by molar mass. Entries after “also recorded” stand apart in the source; their conditions may differ. Where two headings read alike, the source gives them in different places.

For the compound `CC1(C)N=C(N)N=C(N)N1c1ccc(Cl)cc1` [CYC, cycloguanil], the MIC90 is more than 128 µM with S. aureus ATCC 11632; 74.8 µM (≈ 18.8 µg/mL) with M. tuberculosis H37Rv (setting [4]); more than 100 µM in the data set on M. tuberculosis H37Rv (setting [5]); more than 128 µM in the data set with E. coli ATCC 25922 [2]; more than 128 µM with P. aeruginosa PAO1. Further, the “SYTOX Green uptake” value in the data set with E. coli ATCC 25922 [1] is given as “no uptake”. For the same compound, the hemolysis result in the data set on human erythrocytes is recorded as “no detectable hemolysis”. At SaDHFR, the “SaDHFR IC50 (μM ± SD)” value is “did not inhibit and nf^a”. In addition, the “susceptibility / activity in agar diffusion, M. luteus” value with Micrococcus luteus is on record as “no activity”. Besides, the “susceptibility / activity in agar diffusion, B. subtilis” value in the data set with Bacillus subtilis was “susceptible; also recorded: low activity”. Also, in the data set with M. abscessus L948 (MABA), the “Half-Maximal Inhibitory Concentration (IC50, μM) M. abscessus L948 MABA” value is reported as “no inhibition”. For the same compound, in the data set on M. abscessus L948, the IC50 was more than 200 µM. Also, in the data set with S. aureus, the “activity in agar diffusion, S. aureus” value is recorded as “no activity”. In addition, in [3], the “MIC values against E. coli ΔmscL, ΔmscS and WT parent strain set” value is given as “no significant differences”.

In the case of `CC[C@H]1OC(=O)[C@H](C)[C@@H](O[C@H]2C[C@@](C)(OC)[C@@H](O)[C@H](C)O2)[C@H](C)[C@@H](O[C@@H]2O[C@H](C)C[C@H](N(C)C)[C@H]2O)[C@](C)(OC)C[C@@H](C)C(=O)[C@H](C)[C@@H](O)[C@]1(C)O` [Clarithromycin], the IC50 with M. abscessus L948 turned out to be 15.4 µM. Also, in the data set on M. abscessus L948 (plateau from 12.5–200 μM), the “inhibition plateau in M. abscessus MABA” value is ~ 70%.

For the compound `NNC(=O)c1ccncc1` [Isoniazid], the MIC90 was 0.24 µM (≈ 0.0329 µg/mL) in the data set with M. tuberculosis H37Rv (setting [4]) and 0.12 µM (≈ 0.0165 µg/mL) in the data set with M. tuberculosis H37Rv (setting [5]).

`COc1c(N2C[C@@H]3CCCN[C@@H]3C2)c(F)cc2c(=O)c(C(=O)O)cn(C3CC3)c12` [Moxifloxacin]: the values for the MIC90 with M. tuberculosis H37Rv (setting [4]) and in the data set on M. tuberculosis H37Rv (setting [5]) were 0.43 µM (≈ 0.173 µg/mL) and 0.042 µM (≈ 0.0169 µg/mL), respectively.

With `O=[N+]([O-])c1cn2c(n1)OC[C@@H](OCc1ccc(OC(F)(F)F)cc1)C2` [Pretomanid], the MIC90 with M. tuberculosis H37Rv (setting [4]) stood at 0.38 µM (≈ 0.137 µg/mL); in the data set with M. tuberculosis H37Rv (setting [5]) it was 0.51 µM (≈ 0.183 µg/mL).

On to `CO[C@H]1/C=C/O[C@@]2(C)Oc3c(C)c(O)c4c(O)c(c(/C=N/N5CCN(C)CC5)c(O)c4c3C2=O)NC(=O)/C(C)=C\C=C\[C@H](C)[C@H](O)[C@@H](C)[C@@H](O)[C@@H](C)[C@H](OC(C)=O)[C@@H]1C` [Rifampicin], for which the MIC90 with M. tuberculosis H37Rv (setting [4]) is 0.05 µM (≈ 0.0411 µg/mL); with M. tuberculosis H37Rv (setting [5]), less than 0.016 µM.

For the compound `[H]/N=C(/N)N[C@H]1[C@H](O)[C@@H](O)[C@H](O[C@@H]2O[C@@H](C)[C@](O)(C=O)[C@H]2O[C@@H]2O[C@@H](CO)[C@H](O)[C@@H](O)[C@@H]2NC)[C@@H](N/C(N)=N\[H])[C@@H]1O` [Streptomycin], the MIC90 in the data set with M. tuberculosis H37Rv (setting [4]) came out at 0.21 µM (≈ 0.122 µg/mL); in the data set with M. tuberculosis H37Rv (setting [5]), 0.27 µM (≈ 0.157 µg/mL).

Turning to `COc1cc(Cc2cnc(N)nc2N)cc(OC)c1OC` [TMP, trimethoprim], the “SYTOX Green uptake” value in the data set on E. coli ATCC 25922 [1] was “no uptake”. In data set [3], the “MIC values against E. coli ΔmscL, ΔmscS and WT parent strain set” value is recorded as “no significant differences”.
